Measured values: patent US9694027B2, “Pyrazole derivative and use thereof for medical purposes” (KISSEI PHARMACEUTICAL CO. LTD., priority 2012, dated 2017)

Experiments:
[1] = test system: healthy adult males; test: Single-dose study in healthy adult males (Example 3); type: in vivo, human; details: for Number of subject with gastrointestinal disorders: Abdominal bloating / Number of subject with gastrointestinal disorders: Abdominal pain / Number of subject with gastrointestinal disorders: Diarrhea: of 6 subjects; for Frequency of bowel movement after the administration, Mean: 6 subjects, 48 hours, Placebo 1.7
Protocol: Compound 2 at a single dose of 2, 5, 10, 20, 40, 80 or 160 mg (free drug equivalent), or placebo was orally administered just immediately before breakfast to healthy adult males. For the administration of Compound 2, tablets containing 1, 5 or 10 mg in free drug equivalent were used. The test period was set between the administration and the discharge 48 hours after the administration. Frequencies of bowel movements were checked during consultation by a doctor, and the adverse events (gastrointestinal disorders) were defined when an abnormal finding (diarrhea or loose stool) was seen based on the stool form and the finding.

[2] = test system: patients with chronic constipation; test: Clinical trial in patients with chronic constipation (Example 5); type: in vivo, human
Protocol: After observation for 2 weeks, Compound 2 or a placebo was administered orally after eating to 79 patients with chronic constipation for 4 weeks. Patients who had steady symptoms for long periods were selected as constipation patients using diagnostic criteria of functional constipation based on Rome III as a reference.
2 mg TID group: administration of 2 mg of Compound 2, 3 times daily • (after breakfast, after lunch, after dinner)
20 mg QD group: administration of 20 mg of Compound 2, 1 time daily • (after breakfast)
20 mg BID group: administration of 20 mg of Compound 2, 2 times daily • (after breakfast, after dinner)
20 mg TID group: administration of 20 mg of Compound 2, 3 times daily • (after breakfast, after lunch, after dinner)
For the administration of Compound 2, tablets containing 1 or 10 mg in free drug equivalent of Compound 2 were used.
If the subjects complained that further administration of 2 tablets each time was difficult due to the increase in the frequency of spontaneous bowel movements or softened stool form causing problems in daily life, the dose was switched to 1 tablet each time in the week 1 visit or week 2 visit by the doctor and the administration was continued.

## Cc1cc(OCCCNCC(C)(C)C(N)=O)ccc1Cc1c(O[C@@H]2O[C@H](CO)[C@@H](O)[C@H](O)[C@H]2O)n[nH]c1C(C)C.Cc1cc(OCCCNCC(C)(C)C(N)=O)ccc1Cc1c(O[C@@H]2O[C@H](CO)[C@@H](O)[C@H](O)[C@H]2O)n[nH]c1C(C)C.O=C(O)CCCCCCCCC(=O)O [Compound 2, bis[3-(3-{4-[3-(β-D-glucopyranosyloxy)-5-isopropyl-1H-pyrazol-4-ylmethyl]-3-methylphenoxy}propylamino)-2,2-dimethylpropionamide]monosebacate]
[1]; 80 mg and 160 mg groups
  Stool form (Bristol Stool Form Scale): type 6 or 7 for many subjects
[1]; single dose 2 mg
  Number of subject with gastrointestinal disorders: Abdominal bloating: 0
  Number of subject with gastrointestinal disorders: Abdominal pain: 0
  Number of subject with gastrointestinal disorders: Diarrhea: 1
[1]; single dose 5 mg
  Number of subject with gastrointestinal disorders: Abdominal bloating: 0
  Number of subject with gastrointestinal disorders: Abdominal pain: 0
  Number of subject with gastrointestinal disorders: Diarrhea: 0
[1]; single dose 10 mg
  Number of subject with gastrointestinal disorders: Abdominal bloating: 0
  Number of subject with gastrointestinal disorders: Abdominal pain: 0
  Number of subject with gastrointestinal disorders: Diarrhea: 2
[1]; single dose 20 mg
  Number of subject with gastrointestinal disorders: Abdominal bloating: 0
  Number of subject with gastrointestinal disorders: Abdominal pain: 0
  Number of subject with gastrointestinal disorders: Diarrhea: 2
[1]; single dose 40 mg
  Number of subject with gastrointestinal disorders: Abdominal bloating: 0
  Number of subject with gastrointestinal disorders: Abdominal pain: 0
  Number of subject with gastrointestinal disorders: Diarrhea: 2
[1]; single dose 80 mg
  Number of subject with gastrointestinal disorders: Abdominal bloating: 2
  Number of subject with gastrointestinal disorders: Abdominal pain: 4
  Number of subject with gastrointestinal disorders: Diarrhea: 5
[1]; single dose 160 mg
  Number of subject with gastrointestinal disorders: Abdominal bloating: 3
  Number of subject with gastrointestinal disorders: Abdominal pain: 3
  Number of subject with gastrointestinal disorders: Diarrhea: 6
[1]; single dose 2-160 mg
  Severity of gastrointestinal disorders (abdominal bloating, abdominal pain, diarrhea): mild in all the cases
[1]; single oral dose 2 mg (free drug equivalent)
  Frequency of bowel movement after the administration, Mean: 1.7 time
[1]; single oral dose 5 mg (free drug equivalent)
  Frequency of bowel movement after the administration, Mean: 1.0 time
[1]; single oral dose 10 mg (free drug equivalent)
  Frequency of bowel movement after the administration, Mean: 2.2 time
[1]; single oral dose 20 mg (free drug equivalent)
  Frequency of bowel movement after the administration, Mean: 2.2 time
[1]; single oral dose 40 mg (free drug equivalent)
  Frequency of bowel movement after the administration, Mean: 1.8 time
[1]; single oral dose 80 mg (free drug equivalent)
  Frequency of bowel movement after the administration, Mean: 4.8 time
[1]; single oral dose 160 mg (free drug equivalent)
  Frequency of bowel movement after the administration, Mean: 5.2 time
[2]; all groups administered, 4 weeks
  Subjects with hypoglycemia: no subjects with hypoglycemia were reported
[2]; subject 1, 2 mg TID, administration week 1, observation period 1.1
  Frequency of spontaneous bowel movements per week: 7.0 time/week
[2]; subject 1, 2 mg TID, administration week 1, observation period 1.5
  Bristol Stool Form Scale: 3.7 mean/week
[2]; subject 1, 2 mg TID, administration week 2, observation period 1.1
  Frequency of spontaneous bowel movements per week: 7.0 time/week
[2]; subject 1, 2 mg TID, administration week 2, observation period 1.5
  Bristol Stool Form Scale: 3.7 mean/week
[2]; subject 1, 2 mg TID, administration week 3, observation period 1.1
  Frequency of spontaneous bowel movements per week: 11.0 time/week
[2]; subject 1, 2 mg TID, administration week 3, observation period 1.5
  Bristol Stool Form Scale: 4.1 mean/week
[2]; subject 1, 2 mg TID, administration week 4, observation period 1.1
  Frequency of spontaneous bowel movements per week: 10.5 time/week
[2]; subject 1, 2 mg TID, administration week 4, observation period 1.5
  Bristol Stool Form Scale: 3.8 mean/week
[2]; subject 2, 20 mg QD, administration week 1, observation period 1.8
  Frequency of spontaneous bowel movements per week: 12.0 time/week
[2]; subject 2, 20 mg QD, administration week 1, observation period 3.0
  Bristol Stool Form Scale: 4.6 mean/week
[2]; subject 2, 20 mg QD, administration week 2, observation period 1.8
  Frequency of spontaneous bowel movements per week: 13.0 time/week
[2]; subject 2, 20 mg QD, administration week 2, observation period 3.0
  Bristol Stool Form Scale: 4.0 mean/week
[2]; subject 2, 20 mg QD, administration week 3, observation period 1.8
  Frequency of spontaneous bowel movements per week: 8.0 time/week
[2]; subject 2, 20 mg QD, administration week 3, observation period 3.0
  Bristol Stool Form Scale: 3.4 mean/week
[2]; subject 3, 20 mg BID switched to 10 mg 2 times daily after 1 week, administration week 2, observation period 2.0
  Bristol Stool Form Scale: 4.0 mean/week
[2]; subject 3, 20 mg BID switched to 10 mg 2 times daily after 1 week, administration week 2, observation period 2.2
  Frequency of spontaneous bowel movements per week: 6.0 time/week
[2]; subject 3, 20 mg BID switched to 10 mg 2 times daily after 1 week, administration week 3, observation period 2.0
  Bristol Stool Form Scale: 4.3 mean/week
[2]; subject 3, 20 mg BID switched to 10 mg 2 times daily after 1 week, administration week 3, observation period 2.2
  Frequency of spontaneous bowel movements per week: 6.0 time/week
[2]; subject 3, 20 mg BID switched to 10 mg 2 times daily after 1 week, administration week 4, observation period 2.0
  Bristol Stool Form Scale: 4.2 mean/week
[2]; subject 3, 20 mg BID switched to 10 mg 2 times daily after 1 week, administration week 4, observation period 2.2
  Frequency of spontaneous bowel movements per week: 5.0 time/week
[2]; subject 3, 20 mg BID, administration week 1, observation period 2.0
  Bristol Stool Form Scale: 5.9 mean/week
[2]; subject 3, 20 mg BID, administration week 1, observation period 2.2
  Frequency of spontaneous bowel movements per week: 21.0 time/week
